From patent US20090093454A1, “Chemical Compounds” (priority 2005, published 2009)
Counter-ions that a name gives are not always drawn. Like-named read-outs stand apart in the source and are kept apart here.

Key:
HIV-1 IIIB = assay: HOS HIV-1 infectivity assay, IIIB strain; assay type: cell-based; conditions: 96 h
Experimental: (§1) Compounds were profiled against two HIV-1 viruses, the M-tropic (CCR5 utilizing) Ba-L strain and the T-tropic (CXCR4 utilizing) IIIB strain. Both viruses were propagated in human peripheral blood lymphocytes. Compounds were tested for there ability to block infection of the HOS cell line (expressing hCXCR4/hCCR5/hCD4/pHIV-LTR-luciferase) by either HIV-1 Ba-L or HIV-1, IIIB. Compound cytotoxicity was also examined in the absence of virus addition.
(§2) HOS cells (expressing hCXCR4/hCCR5/hCD4/pHIV-LTR-luciferase) were harvested and diluted in Dulbeccos modified Eagles media supplemented with 2% FCS and non-essential amino acid to a concentration of 60,000 cells/ml. The cells were plated into 96-well plates (100 ul per well) and the plates were placed in a tissue culture incubator (37° C.; 5% CO2/95% air) for a period of 24 h.
(§3) Subsequently, 50 ul of the desired drug solution (4 times the final concentration) was added to each well and the plates were returned to the tissue culture incubator (37° C.; 5% CO2/95% air) for 1 h. Following this incubation 50 ul of diluted virus was added to each well (approximately 2 million RLU per well of virus). The plates were returned to the tissue culture incubator (37° C.; 5% CO2/95% air) and were incubated for a further 96 h.
(§4) Following this incubation the endpoint for the virally infected cultures was quantified following addition of Steady-Glo Luciferase assay system reagent (Promega, Madison, Wis.). Cell viability or non-infected cultures was measured using a CellTiter-Glo luminescent cell viability assay system (Promega, Madison, Wis.). All luminescent readouts are performed on a Topcount luminescence detector (Packard, Meridien, Conn.).
as §1, with “Ba-L was” for “Both viruses were”, “either peripheral blood lymphocytes or SupT1/CCR5+/CXCR4+ cells. IIIB was propagated in” for “human”, “their” for “there”
as §2, with “FCS” for “FCS and non-essential amino acid”, “120,000” for “60,000”, “(50 μl” for “(100 ul”, “(370°” for “(37°”
(§5) Subsequently, 50 μl of the desired drug solution (2 times the final concentration) was added to each well and the plates were returned to the tissue culture incubator (370° C.; 5% CO2/95% air) for 1 h. Following this incubation, 60 μl of diluted virus (4 times the final concentration) was added to 60 μl of 2× the final desired concentration of the compound and 100 μl of this compound/virus mix was added to each well (approximately 2 million RLU per well of virus). The plates were returned to the tissue culture incubator (370° C.; 5% CO2/95% air) and were incubated for a further 96 h.

[1] = Compound cytotoxicity in absence of virus (CellTiter-Glo); assay type: cell-based; conditions: human
Experimental: as §1, §2, §3, §4
as §1, with “Ba-L was” for “Both viruses were”, “either peripheral blood lymphocytes or SupT1/CCR5+/CXCR4+ cells. IIIB was propagated in” for “human”, “their” for “there”
as §2, with “FCS” for “FCS and non-essential amino acid”, “120,000” for “60,000”, “(50 μl” for “(100 ul”, “(370°” for “(37°”
as §5

[2] = Human immunodeficiency virus 1, T-tropic (CXCR4 utilizing) IIIB strain, HOS cells, luciferase, read-out: HOS (3B)
[3] = HOS cells, no virus added, cell viability, read-out: Cytotox (pIC50) (converted)
[4] = Human immunodeficiency virus 1, IIIB, HOS, read-out: HOS (3B) (μM)

NCCCn1c(CN2CCC[C@@H]3CCc4cccnc4[C@H]32)nc2ccccc21 (racemic) [Example 8, (trans)-3-[2-(3,4,4a,5,6,10b-Hexahydro-1,10-phenanthrolin-1(2H)-ylmethyl)-1H-benzimidazol-1-yl]-1-propanamine]
IC50 (HIV-1 IIIB; [2]): 0.22 µM | IC50 at 96 h [1, 3]: > 100000 nM

CN1CCN(c2cccc3nc(CN4CCC[C@H]5CCc6cccnc6[C@H]54)cn23)CC1 (racemic) [Example 15B, (cis)-1-{[5-(4-Methyl-1-piperazinyl)imidazo[1,2-a]pyridin-2-yl]methyl}-1,2,3,4,4a,5,6,10b-octahydro-1,10-phenanthroline]
IC50 (HIV-1 IIIB; [2]): 0.004 µM | IC50 at 96 h [1, 3]: > 100000 nM

CN1CCN(c2cccc3nc(CN4CCC[C@@H]5CCc6cccnc6[C@@H]54)cn23)CC1 [Example 22, (4aS,10bR)-1-{[5-(4-Methyl-1-piperazinyl)imidazo[1,2-a]pyridin-2-yl]methyl}-1,2,3,4,4a,5,6,10b-octahydro-1,10-phenanthroline]
IC50 (HIV-1 IIIB; [2]): 0.1 µM | IC50 at 96 h [1, 3]: > 100000 nM

CN1CCN(c2cccc3nc(CN4CCC[C@H]5CCc6cccnc6[C@H]54)cn23)CC1 [Example 27, (4aR,10bS)-1-{[5-(4-Methyl-1-piperazinyl)imidazo[1,2-a]pyridin-2-yl]methyl}-1,2,3,4,4a,5,6,10b-octahydro-1,10-phenanthroline]
IC50 (HIV-1 IIIB; [2]): 0.004 µM | IC50 at 96 h [1, 3]: > 10000 nM

CN1CCN(c2cccc3nc(CN4CCC[C@H]5CCc6cccnc6[C@H]54)[nH]c23)CC1 (racemic) [Example 33, (cis)-1-{[4-(4-Methyl-1-piperazinyl)-1H-benzimidazol-2-yl]methyl}-1,2,3,4,4a,5,6,10b-octahydro-1,10-phenanthroline]
IC50 (HIV-1 IIIB; [2]): 0.0035 µM | IC50 at 96 h [1, 3]: 37200 nM

CN1CCN(c2cccc3[nH]c(CN4CCC[C@@H]5CCc6cccnc6[C@H]54)nc23)CC1 (racemic) [Example 32, (trans)-1-{[4-(4-Methyl-1-piperazinyl)-1H-benzimidazol-2-yl]methyl}-1,2,3,4,4a,5,6,10b-octahydro-1,10-phenanthroline trifluoroacetate]
IC50 (HIV-1 IIIB; [2]): 0.26 µM | IC50 at 96 h [1, 3]: > 10000 nM

CN(C)CCCn1c(CN2CCC[C@@H]3CCc4cccnc4[C@@H]32)nc2ccccc21 [Example 11A, (3-{2-[(4aS,10bR)-3,4,4a,5,6,10b-Hexahydro-1,10-phenanthrolin-1(2H)-ylmethyl]-1H-benzimidazol-1-yl}propyl)dimethylamine]
IC50 (HIV-1 IIIB; [2]): 0.53 µM | IC50 at 96 h [1, 3]: > 100000 nM

NCCCn1c(CN2CCC[C@H]3CCc4cccnc4[C@H]32)nc2ccccc21 (racemic) [Example 9, (cis)-3-[2-(3,4,4a,5,6,10b-Hexahydro-1,10-phenanthrolin-1(2H)-ylmethyl)-1H-benzimidazol-1-yl]-1-propanamine]
IC50 (HIV-1 IIIB; [2]): 0.073 µM | IC50 at 96 h [1, 3]: 28800 nM

CN1CCN(c2cccc3nc(CN4CCC[C@@H]5CCc6cccnc6[C@H]54)cn23)CC1 (racemic) [Example 15A, (trans)-1-{[5-(4-Methyl-1-piperazinyl)imidazo[1,2-a]pyridin-2-yl]methyl}-1,2,3,4,4a,5,6,10b-octahydro-1,10-phenanthroline]
IC50 (HIV-1 IIIB; [2]): 0.033 µM | IC50 at 96 h [1, 3]: > 100000 nM

CN(C)CCCn1c(CN2CCC[C@H]3CCc4cccnc4[C@H]32)nc2ccccc21 [Example 11B, (3-{2-[(4aR,10bS)-3,4,4a,5,6,10b-Hexahydro-1,10-phenanthrolin-1(2H)-ylmethyl]-1H-benzimidazol-1-yl}propyl)dimethylamine]
IC50 (HIV-1 IIIB; [2]): 0.035 µM | IC50 at 96 h [1, 3]: > 100000 nM

CN1CCCC(Cn2c(CN3CCC[C@H]4CCc5cccnc5[C@H]43)nc3ccccc32)C1 (mixture of isomers) [Example 13, (cis)-1-({1-[(1-Methyl-3-piperidinyl)methyl]-1H-benzimidazol-2-yl}methyl)-1,2,3,4,4a,5,6,10b-octahydro-1,10-phenanthroline]
IC50 (HIV-1 IIIB; [2]): 0.05 µM | IC50 at 96 h [1, 3]: > 100000 nM

c1cnc2c(c1)CC[C@@H]1CCCN(Cc3nc4ccccc4[nH]3)[C@H]21 (racemic) [Example 7, (cis)-1-(1H-Benzimidazol-2-ylmethyl)-1,2,3,4,4a,5,6,10b-octahydro-1,10-phenanthroline]
IC50 (HIV-1 IIIB; [4]): 1 µM | IC50 at 96 h [1]: > 100000 nM

c1cnc2c(c1)CC[C@H]1CCCN(Cc3nc4ccccc4[nH]3)[C@H]21 (racemic) [Example 6, (trans)-1-(1H-Benzimidazol-2-ylmethyl)-1,2,3,4,4a,5,6,10b-octahydro-1,10-phenanthroline]
IC50 (HIV-1 IIIB; [4]): 0.47 µM | IC50 at 96 h [1]: 31600 nM

CN(C)CCCn1c(CN2CCC[C@@H]3CCc4cccnc4[C@H]32)nc2ccccc21 (stereo in doubt) [Example 10B, (3-{2-[(4aS,10bS)-3,4,4a,5,6,10b-Hexahydro-1,10-phenanthrolin-1(2H)-ylmethyl]-1H-benzimidazol-1-yl}propyl)dimethylamine]
IC50 (HIV-1 IIIB; [2]): 0.14 µM | IC50 at 96 h [1, 3]: > 100000 nM

c1cnc2c(c1)CC[C@@H]1CCCN(Cc3nc4ccccc4n3Cc3ccncc3)[C@H]21 (racemic) [Example 12, (cis)-1-{[1-(4-Pyridinylmethyl)-1H-benzimidazol-2-yl]methyl}-1,2,3,4,4a,5,6,10b-octahydro-1,10-phenanthroline]
IC50 (HIV-1 IIIB; [2]): 0.77 µM | IC50 at 96 h [1, 3]: > 100000 nM

CN(C)CCCn1c(CN2CCC[C@H]3CCc4cccnc4[C@@H]32)nc2ccccc21 (stereo in doubt) [Example 10A, (3-{2-[(4aR,10bR)-3,4,4a,5,6,10b-Hexahydro-1,10-phenanthrolin-1(2H)-ylmethyl]-1H-benzimidazol-1-yl}propyl)dimethylamine]
IC50 (HIV-1 IIIB; [2]): 0.33 µM | IC50 at 96 h [1, 3]: > 100000 nM
